# Source: patent publication US4380512A, “2β-Chloromethyl-2α-methylpenam-3α-carboxylic acid sulfone and salts and esters thereof” (Bristol-Myers Company, priority 1981, dated 1983)
# Counter-ions that a name gives are not always drawn. Like-named read-outs stand apart in the source and are kept apart here.
# Tests used:
# E. coli A9675 = assay: Therapeutic efficacy of BL-P2043, BL-P2044 and components, oral, infected mice (Table 13); assay type: in vivo; conditions: Escherichia coli, po; E. coli A9675, p.o.; pro-drugs and mixtures 50:38; read-out: PD50/Treatment
# β-lactamase enzyme RTEM = conditions: cited from earlier work
# [1] = test system: β-lactamase-producing strains; conditions: in vitro and in vivo; cited from earlier work
# [2] = man, oral; cited from earlier work
# S. aureus = assay: Therapeutic efficacy as mutual pro-drugs or mixtures, oral, infected mice (Table 12); assay type: in vivo; conditions: Staphylococcus aureus, pro-drugs and their mixtures 50:38, read-out: PD50/Treatment
# Experimental: (§1) ^a Treatment schedule: Mice were infected i.p. with about 5 ×
# (§2) 10^6 organisms of E. coli in 4% mucin and 1 × 10^9 of S.
# (§3) aureus in 2% mucin. Drugs were administered p.o. at 0 and 2 hour
# (§4) ^b Mutual ProDrugs: BLP2048 (hetacillin: BLP2013) and BLP2049
# (§5) (hetaamoxicillin: BLP2013) as well as their respective mixtures were
# (§6) administered in a 50:38 ratio. PD50 values are averages of 2 to 3
# (§7) tests for E. coli and 1 to 2 tests for S. aureus.
# (§8) averages of 1 to 2 tests for E. coli and a single test for S. aureus.
# E. coli = assay: as above; assay type: in vivo; conditions: Escherichia coli, pro-drugs and their mixtures 50:38, read-out: PD50/Treatment
# Experimental: as §1, §2, §3, §4, §5, §6, §7, §8
# in vivo [3] = conditions: mouse, po
# From the text: Compounds were solubilized in propylene glycol, except for the Hetacillin
# B. thetaiotaomicron = assay: Anti-Bacteroides activity, MIC by agar dilution (Table 2); assay type: cell-based; conditions: A22279, beta-lactamase +
# Experimental: *Minimum inhibitory concentration (MIC) determined by the agar dilution
# method using 50X dilutions of 24 hour cultures as inocula dispensed by th
# Steer's inoculator. Assay medium composed of Brucella Agar plus 5% laked
# sheep blood and 10 mcg/ml vitamin K.
# Bacteroides species = assay: as above; assay type: cell-based
# [4] = mouse, in vivo, po, 50 mg/kg
# in vivo [5] = conditions: mouse, po, 50 mg/kg; for concentration at 0.5 h / concentration at 1 h / concentration at 2 h: Blood Level
# [6] = Blood levels and half-life of BL-P2024 after oral administration to mice (Table 5); assay type: in vivo; conditions: 100 mg/kg oral
# P. stuartii = assay: Antibacterial activity of ceforanide alone and with BL-P2013, MIC (Table 11); assay type: cell-based; conditions: Providencia stuartii
# From the text: (§9) ^a Geometric mean value where applicable.
# E. cloacae = assay: as above; assay type: cell-based; conditions: Enterobacter cloacae
# From the text: as §9
# P. aeruginosa = assay: as above; assay type: cell-based; conditions: Pseudomonas aeruginosa
# From the text: as §9
# S. faecalis = assay: as above; assay type: cell-based; conditions: Enterococcus faecalis
# From the text: as §9
# C. freundii = assay: as above; assay type: cell-based; conditions: Citrobacter freundii
# From the text: as §9
# Citrobacter sp. = assay: as above; assay type: cell-based
# From the text: as §9
# P. mirabilis = assay: as above; assay type: cell-based; conditions: Proteus mirabilis
# From the text: as §9
# E. aerogenes = assay: as above; assay type: cell-based
# From the text: as §9
# P. rettgeri = assay: as above; assay type: cell-based; conditions: Providencia rettgeri
# From the text: as §9
# P. vulgaris = assay: as above; assay type: cell-based; conditions: Proteus vulgaris
# From the text: as §9
# S. marcescens = assay: as above; assay type: cell-based
# From the text: as §9
# M. morganii = assay: as above; assay type: cell-based; conditions: Morganella morganii, geometric mean
# From the text: as §9
compound,measurement,setting,value
"CC1(C)SC2C(NC(=O)C(N)c3ccccc3)C(=O)N2C1C(=O)OCOC(=O)C1N2C(=O)CC2S(=O)(=O)C1(C)CCl [BL-P2043, 6-[(R)-2-Amino-2-phenylacetamido]-3,3-dimethyl-7-oxo-4-thia-1-azabicyclo[3.2.0]heptane-2-carbonyloxymethyl 2β-chloromethyl-2-α-methylpenam-3α-carboxylate sulfone]",ED50,E. coli A9675,44 mg/kg
"CC1(C)[C@H](C(=O)O)N2C(=O)[C@@H](Br)[C@H]2S1(=O)=O [(2S,5R,6S)-6β-Bromo-3,3-dimethyl-7-oxo-4-thia-1-azabicyclo[3.2.0]heptane-2-carboxylic acid, S,S-dioxide]",inhibition of β-lactamase,β-lactamase enzyme RTEM,inhibit the action of the β-lactamase enzyme RTEM
CC1(C)[C@H](C(=O)O)N2C(=O)C[C@H]2S1(=O)=O [CP-45899],potentiation of ampicillin,[1],potentiates the in vitro and in vivo activities of ampicillin versus β-lactamase-producing strains
"CC1(C)SC2C(NC(=O)C(N)c3ccc(O)cc3)C(=O)N2C1C(=O)OCOC(=O)C1N2C(=O)CC2S(=O)(=O)C1(C)CCl (single isomer, unassigned) [BL-P2044, Hydrochloride]",ED50,E. coli A9675,25 mg/kg
CC1(C)S[C@@H]2[C@H](N=CN3CCCCCC3)C(=O)N2[C@H]1C(=O)OCOC(=O)[C@@H]1N2C(=O)C[C@H]2S(=O)(=O)C1(C)C [ester 4],absorption from the gastro-intestinal tract,[2],excellently absorbed from the gastro-intestinal tract
same,blood and tissue levels of antibiotic and β-lactamase inhibitor,[2],high blood and tissue levels of antibiotic and β-lactamase inhibitor in a balanced ratio
same,hydrolysis after absorption,[2],hydrolyzed with simultaneous liberation of the active components
"CC1(C)SC2C(N3C(=O)C(c4ccccc4)NC3(C)C)C(=O)N2C1C(=O)OCOC(=O)C1N2C(=O)CC2S(=O)(=O)C1(C)CCl [BL-P2048, 2β-Chloromethyl-2α-methyl-1,1-dioxopenam-3-carbonyloxymethyl 6-(D-2,2-dimethyl-5-oxo-4-phenyl-1-imidazolidinyl)penicillanate Hydrochloride]",ED50,"S. aureus; S. aureus A20379, p.o.",400 mg/kg
same,ED50,"S. aureus; S. aureus A-9606, p.o.",274 mg/kg
same,ED50,"E. coli; E. coli A20649, p.o.",89 mg/kg
same,ED50,"E. coli; E. coli A21223, p.o.",32 mg/kg
same,ED50,"E. coli; E. coli A-9675, p.o.",49 mg/kg
same,Blood Level,"in vivo [3]; 38 mg/kg, 15 min",10 µg/mL
same,Blood Level,"in vivo [3]; 38 mg/kg, 120 min",0.9 µg/mL
same,Blood Level,"in vivo [3]; 38 mg/kg, 150 min",0.6 µg/mL
same,Blood Level,"in vivo [3]; 50 mg/kg, 15 min",8 µg/mL
"CC1(C)S[C@@H]2[C@H](NC(=O)[C@H](N)c3ccc(O)cc3)C(=O)N2[C@H]1C(=O)O [Amoxicillin, reference compound]",MIC,B. thetaiotaomicron,16 mg/L
same,MIC,"Bacteroides species; A20929, beta-lactamase +",16 mg/L
same,MIC,"Bacteroides species; A20931, beta-lactamase +",16 mg/L
same,MIC,"Bacteroides species; A21954, beta-lactamase +",16 mg/L
same,Blood Level,[4]; 0.5 h,7 µg/mL
same,Blood Level,[4]; 1 h,5 µg/mL
same,Blood Level,[4]; 2 h,2.2 µg/mL
same,AUC,in vivo [3]; 50 mg/kg,9.5 µg·h/mL
same,concentration at 0.5 h,in vivo [3]; 50 mg/kg,7 µg/mL
same,concentration at 1 h,in vivo [3]; 50 mg/kg,5 µg/mL
same,concentration at 2 h,in vivo [3]; 50 mg/kg,2.2 µg/mL
same,AUC,in vivo [5],15.4 µg·h/mL
same,concentration at 0.5 h,in vivo [5],11 µg/mL
same,concentration at 1 h,in vivo [5],9 µg/mL
same,concentration at 2 h,in vivo [5],3.1 µg/mL
"CC1(C)S[C@@H]2[C@H](NC(=O)[C@H](N)c3ccccc3)C(=O)N2[C@H]1C(=O)O [Ampicillin, reference compound]",Blood Level,[4]; 0.5 h,3.2 µg/mL
same,Blood Level,[4]; 1 h,2.6 µg/mL
same,AUC,in vivo [3]; 50 mg/kg,6.2 µg·h/mL
same,concentration at 0.5 h,in vivo [3]; 50 mg/kg,4 µg/mL
same,concentration at 1 h,in vivo [3]; 50 mg/kg,3.3 µg/mL
same,concentration at 2 h,in vivo [3]; 50 mg/kg,1.7 µg/mL
same,AUC,in vivo [5],6.2 µg·h/mL
same,concentration at 0.5 h,in vivo [5],4 µg/mL
same,concentration at 1 h,in vivo [5],3.3 µg/mL
same,concentration at 2 h,in vivo [5],1.7 µg/mL
same,ED50,E. coli A9675,> 400 mg/kg
"CC(C)(C)C(=O)OCOC(=O)C1N2C(=O)CC2S(=O)(=O)C1(C)CCl (stereo not drawn) [BL-P2024, Pivaloyloxymethyl 2β-Chloromethyl-2α-methylpenam-3α-carboxylate Sulfone]",Blood Level,[6]; 15 min,12.3 µg/mL
same,Blood Level,[6]; 30 min,12.2 µg/mL
same,Blood Level,[6]; 60 min,9.4 µg/mL
same,Blood Level,[6]; 120 min,5.7 µg/mL
NCc1ccccc1CC(=O)N[C@@H]1C(=O)N2C(C(=O)O)=C(CSc3nnnn3CC(=O)O)CS[C@H]12 [Ceforanide],MIC,P. stuartii; 1 strain,0.35 mg/L
same,MIC,"P. stuartii; 4 strains, geometric mean",45 mg/L
same,MIC,E. cloacae; 1 strain (first line),22.6 mg/L
same,MIC,E. cloacae; 1 strain (third line),> 125 mg/L
same,MIC,"E. cloacae; 14 strains, geometric mean",> 125 mg/L
same,MIC,P. aeruginosa,125 mg/L
same,MIC,S. faecalis,> 125 mg/L
same,MIC,C. freundii,> 125 mg/L
same,MIC,Citrobacter sp.,> 125 mg/L
same,MIC,P. mirabilis; 1 strain,0.25 mg/L
same,MIC,"P. mirabilis; 3 strains, geometric mean",25.4 mg/L
same,MIC,"E. aerogenes; 5 strains, geometric mean",> 125 mg/L
same,MIC,E. aerogenes; Klebsiella aerogenes,> 125 mg/L
same,MIC,"E. aerogenes; Klebsiella aerogenes, 4 strains, geometric mean, read-out: MIC",3.4 mg/L
same,MIC,P. rettgeri; 1 strain (first line),0.06 mg/L
same,MIC,P. rettgeri; 1 strain (second line),16 mg/L
same,MIC,P. vulgaris,> 125 mg/L
same,MIC,"P. vulgaris; 1 strain, read-out: MIC",0.5 mg/L
same,MIC,"P. vulgaris; 9 strains, geometric mean, read-out: MIC",85 mg/L
same,MIC,"S. marcescens; 6 strains, geometric mean",125 mg/L
same,MIC,S. marcescens; Serratia marcescens,125 mg/L
same,MIC,M. morganii; 8 strains (second line),> 125 mg/L
same,MIC,"M. morganii; 8 strains (first line), read-out: MIC",65 mg/L
CC1(C)S[C@@H]2[C@H](NC(=O)[C@H](N)c3ccccc3)C(=O)N2[C@H]1C(=O)OCOC(=O)[C@@H]1N2C(=O)C[C@H]2S(=O)(=O)C1(C)C [ester 3],absorption from the gastro-intestinal tract,[2],excellently absorbed from the gastro-intestinal tract
same,blood and tissue levels of antibiotic and β-lactamase inhibitor,[2],high blood and tissue levels of antibiotic and β-lactamase inhibitor in a balanced ratio
same,hydrolysis after absorption,[2],hydrolyzed with simultaneous liberation of the active components
"CC1(C)SC2C(N3C(=O)C(c4ccc(O)cc4)NC3(C)C)C(=O)N2C1C(=O)OCOC(=O)C1N2C(=O)CC2S(=O)(=O)C1(C)CCl [BL-P2049, 2β-Chloromethyl-2α-methyl-1,1-dioxopenam-3-carbonyloxymethyl 6-[D-2,2-dimethyl-5-oxo-4-(4-hydroxyphenyl)-1-imidazolidinyl]-penicillanate Hydrochloride]",ED50,"S. aureus; S. aureus A20379, p.o.",> 400 mg/kg
same,ED50,"S. aureus; S. aureus A-9606, p.o.",> 374 mg/kg
same,ED50,"E. coli; E. coli A20649, p.o.",43 mg/kg
same,ED50,"E. coli; E. coli A21223, p.o.",32 mg/kg
same,ED50,"E. coli; E. coli A-9675, p.o.",28 mg/kg
same,Blood Level,"in vivo [3]; 38 mg/kg, 15 min",4.1 µg/mL
same,Blood Level,"in vivo [3]; 38 mg/kg, 30 min",4.6 µg/mL
same,Blood Level,"in vivo [3]; 38 mg/kg, 60 min",3.1 µg/mL
same,Blood Level,"in vivo [3]; 38 mg/kg, 90 min",2.2 µg/mL
same,Blood Level,"in vivo [3]; 38 mg/kg, 120 min",1.6 µg/mL
same,Blood Level,"in vivo [3]; 38 mg/kg, 150 min",1.2 µg/mL
same,Blood Level,"in vivo [3]; 50 mg/kg, 15 min",3.7 µg/mL
same,Blood Level,"in vivo [3]; 50 mg/kg, 30 min",4.7 µg/mL
same,Blood Level,"in vivo [3]; 50 mg/kg, 60 min",4.7 µg/mL
same,Blood Level,"in vivo [3]; 50 mg/kg, 90 min",4.1 µg/mL
same,Blood Level,"in vivo [3]; 50 mg/kg, 120 min",3.7 µg/mL
same,Blood Level,"in vivo [3]; 50 mg/kg, 150 min",3.3 µg/mL
